Experiments:
[1] = Displacement of [3H]DTG from sigma2 receptor in rat liver homogenate in presence of (+)-pentazocine; format: tissue-based
[2] = Selectivity ratio of Ki for rat sigma2 receptor to Ki for guinea pig sigma1 receptor
[3] = target: Sigma non-opioid intracellular receptor 1 (Cavia porcellus, UniProt Q60492); test: Displacement of [3H](+)-pentazocine from sigma1 receptor in guinea pig brain homogenate; format: tissue-based
[4] = target: Sigma non-opioid intracellular receptor 1 (Rattus norvegicus, UniProt Q9R0C9); test: biochemical
Chain of Sigma non-opioid intracellular receptor 1 (Rattus norvegicus, UniProt Q9R0C9) (Q9R0C9 whole entry): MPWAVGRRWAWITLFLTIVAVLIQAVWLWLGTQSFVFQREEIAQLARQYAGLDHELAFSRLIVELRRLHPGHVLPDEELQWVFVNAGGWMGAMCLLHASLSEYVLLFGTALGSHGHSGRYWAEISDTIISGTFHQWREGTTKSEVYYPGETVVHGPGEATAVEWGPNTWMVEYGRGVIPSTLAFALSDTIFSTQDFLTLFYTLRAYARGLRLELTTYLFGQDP
Description: Displacement of [3H](+)-pentazocine from sigma1 receptor in rat brain homogenate after 120 mins

[5] = Binding affinity to sigma2 receptor; parameters: species or system Homo sapiens
[6] = Binding affinity to sigma2 receptor in guinea pig brain homogenate; format: tissue-based, Cavia porcellus
[7] = Binding affinity to sigma1 receptor

Chain of Sigma non-opioid intracellular receptor 1 (Cavia porcellus, UniProt Q60492) (Q60492 whole entry): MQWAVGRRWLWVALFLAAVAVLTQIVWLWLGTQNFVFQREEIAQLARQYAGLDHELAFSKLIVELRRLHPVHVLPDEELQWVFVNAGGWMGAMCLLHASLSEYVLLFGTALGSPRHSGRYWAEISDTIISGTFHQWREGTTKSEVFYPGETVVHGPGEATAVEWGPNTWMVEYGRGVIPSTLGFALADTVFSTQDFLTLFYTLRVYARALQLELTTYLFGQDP

Row | Compound | Ki [1] [nM] | Ratio Ki [2] | Ki [3] [nM] | Ki [4] [nM] | Ki [5] [nM] | Ki [6] [nM] | Ki [7] [nM]
1 | FCCOc1ccc(CN2CCCN(Cc3cc4ccccc4o3)CC2)cc1 | 88.1 | 881 | 0.1 |  |  |  | 
2 | FCCCOc1ccc(CN2CCN(Cc3cc4ccccc4o3)C2)cc1 | 3640 | 175 | 20.8 |  |  |  | 
3 | S=c1sc2ccccc2n1CCCCN1CCN(C2CCCCC2)CC1 |  |  |  | 1.3 |  |  | 
4 | COc1ccc(CN2CCN(Cc3cc4ccccc4o3)CC2)cc1 | 167 | 929 | 0.18 |  |  |  | 
5 | FCCOc1ccc(CN2CCN(Cc3cc4ccccc4o3)CC2)cc1 | 807 | 16100 | 0.05 |  |  |  | 
6 | CCOc1ccc(CN2CCN(Cc3cc4ccccc4o3)C2)cc1 | 2380 | 123 | 19.3 |  |  |  | 
7 | CCOc1ccc(CN2CCCN(Cc3cc4ccccc4o3)CC2)cc1 | 292 | 1500 | 0.194 |  |  |  | 
8 | CCOc1ccc(CN2CCN(Cc3cc4ccccc4o3)CC2)cc1 | 1120 | 6190 | 0.18 |  |  |  | 
9 | c1ccc(CN2CCN(Cc3ccccc3)CC2)cc1 |  |  |  |  | 1270 |  | 
10 | CCCOc1ccc(CN2CCN(Cc3cc4ccccc4o3)CC2)cc1 | 1470 | 143 | 10.3 |  |  |  | 
11 | COc1ccc(CCN2CCN(CCCc3ccccc3)CC2)cc1OC [[11C]SA4503] |  |  |  |  |  | 63 | 
12 | COc1ccc(CN2CCCN(Cc3cc4ccccc4o3)CC2)cc1 | 119 | 220 | 0.54 |  |  |  | 
13 | CCCOc1ccc(CN2CCN(Cc3cc4ccccc4o3)C2)cc1 | 6470 | 121 | 53.5 |  |  |  | 
14 | FCCCOc1ccc(CN2CCN(Cc3cc4ccccc4o3)CC2)cc1 | 1360 | 842 | 1.61 |  |  |  | 
15 | FCCCOc1ccc(CN2CCCN(Cc3cc4ccccc4o3)CC2)cc1 | 1380 | 11500 | 0.12 |  |  |  | 
16 | COc1cccc2c1CCCC2CCCN1CCN(Cc2ccccc2)CC1 (stereo unspecified) |  |  |  |  | 1870 |  | 
17 | COc1ccc(CN2CCN(Cc3cc4ccccc4o3)C2)cc1 | 2500 | 58 | 43 |  |  |  | 
18 | CCCOc1ccc(CN2CCCN(Cc3cc4ccccc4o3)CC2)cc1 | 700 | 4600 | 0.152 |  |  |  | 
19 | COc1cccc(CCN2CCN(CCCc3ccccc3)CC2)c1 |  |  |  |  | 10.2 |  | 1.4
20 | FCCOc1ccc(CN2CCN(Cc3cc4ccccc4o3)C2)cc1 | 1530 | 237 | 6.45 |  |  |  | 
